Consider one compound from patent US4156731A, “Heterocyclic oxime compounds and carbamoyloxime derivatives” (priority 1976, dated 1979).

For data set [1], the system named is bean aphid (Aphis fabae Scop.). The experiment in a line: Bean Aphid Foliage Spray Test. It is filed as in vivo. The note with it: 500 ppm foliage spray, 24 hour holding period. Details: key: A: Excellent control; B: Partial control; C: No control.
Data set [2] has as its system two spotted mite (Tetranychus urticae Koch). The experiment in a line: Mite Foliage Spray Test. The class given is in vivo. The note with it: 500 ppm foliage spray, six days. The arrangement: key: A: Excellent control; B: Partial control; C: No control.
In data set [3] the test system is southern armyworm (Prodenia Eridania, (Cram.)). The experiment in a line: Southern Armyworm Leaf Spray Test. The class given is in vivo. The arrangement: key: A: Excellent control; B: Partial control; C: No control. The note with it: larvae, 500 ppm leaf spray, three days.
In data set [4] the test system is Mexican bean beetle (Epilachna varivestis, Muls.). The experiment in a line: Mexican Bean Beetle Leaf Spray Test. The class given is in vivo. Details: key: A: Excellent control; B: Partial control; C: No control. The conditions noted are these: fourth instar larvae, 500 ppm leaf spray, three days.
Data set [5] relates to house flies (Musca domestica, L.). Put plainly: Fly Bait Test. Details: key: A: Excellent control; B: Partial control; C: No control. The note with it: adults, 500 ppm in sugar bait, twenty four hours. It is filed as in vivo.
Data set [6] can be described thus: Peroral toxicity to mammals (rat). The note with it: in vivo, po, mortality rate of 50 percent, read-out: A. O. Rat LD50. As for the experimental part:
Certain of these compositions were also evaluated to determine their peroral toxicity to mammals. The animal selected for this experiment was the rat.

For `CCN=C1SC(=NOC(=O)NC)C(C)(C)S1` [XLVI], the “Bean Aphid pesticidal activity rating” value in data set [1] was “A”. Besides, in data set [2], the “Mite pesticidal activity rating” value is recorded as “C”. Besides, in data set [3], the “Southern Armyworm pesticidal activity rating” value is “B”. Also, the “Mexican Bean Beetle pesticidal activity rating” value in data set [4] is listed as “A”. For the same compound, in data set [5], the “House-Fly pesticidal activity rating” value is given as “A”. The 50% lethal dose (LD50) in data set [6] worked out at 6.3 mg/kg.

Usually LD50 stands for the dose at which mortality reaches 50%.
